Assay results published in PubChem BioAssay AID1963445 (Molecular Pharmacology Branch, DTP, NCI, 2024).

Test system: MCF7 complex spheroid growth, % test/control
Experiment: Anticancer human tumor MCF7 cell line growth inhibition [Asc];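 further: spheroids exposed to compounds for 7 days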;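 on viability, T/C: 100% = DMSO vehicle control wells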
Settings: for IC50: curve of first compound; for viability, T/C: stronger effect = lower value; active means viability on the fitted dose curve at most 10% of control; inactive means the rest
Summary of the method: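 Spheroid model: tumor line + HUVEC + hMSC. Single agents and combinations; top conc. at/near clinical Cmax (10 microM if undetermined), half-log dilutions. DMSO stocks at 800-fold test concentration.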

[1] = second compound 0.00316 µM, first compound 0.0316 µM
[2] = second compound 0.00316 µM, first compound 0.1 µM
[3] = second compound 0.01 µM, first compound 0.0316 µM
[4] = second compound 0.01 µM, first compound 0.1 µM
[5] = second compound 0.0316 µM, first compound 0.0316 µM
[6] = second compound 0.0316 µM, first compound 0.1 µM
[7] = second compound 0.1 µM, first compound 0.0316 µM
[8] = second compound 0.1 µM, first compound 0.1 µM
[9] = second compound 0.316 µM, first compound 0.0316 µM
[10] = second compound 0.316 µM, first compound 0.1 µM
[11] = second compound 1 µM, first compound 0.0316 µM
[12] = second compound 1 µM, first compound 0.1 µM

Cc1nc(N2CCC3(CC2)COC(C)C3N)c(CO)nc1Sc1ccnc(N)c1Cl (stereo unspecified) + CCN1C(C(=O)NC23CCC(C(=O)O)(CC2)CC3)C(c2cccc(Cl)c2F)C2(C(=O)Nc3cc(Cl)ccc32)C12CCCCC2
493 nM: IC50 (second compound 0.03 µM)
< 9.49 nM: IC50 (second compound 0.0949 µM) | IC50 (second compound 0.3 µM) | IC50 (second compound 0.949 µM) | IC50 (second compound 3 µM)
active: viability, T/C (second compound 0.0949 µM, first compound 3 µM) 10.3% | viability, T/C (second compound 0.3 µM, first compound 3 µM) 7.09% | viability, T/C (second compound 0.949 µM, first compound 0.3 µM) 6.58% | viability, T/C (second compound 0.949 µM, first compound 0.949 µM) 5.44% | viability, T/C (second compound 0.949 µM, first compound 3 µM) 5.91% | viability, T/C (second compound 3 µM, first compound 0.03 µM) 8.37% | viability, T/C (second compound 3 µM, first compound 0.0949 µM) 10.1% | viability, T/C (second compound 3 µM, first compound 0.3 µM) 6.66% | viability, T/C (second compound 3 µM, first compound 0.949 µM) 6.63% | viability, T/C (second compound 3 µM, first compound 3 µM) 11.7%
inactive: viability, T/C (second compound 0.00949 µM, first compound 0.00949 µM) 109% | viability, T/C (second compound 0.00949 µM, first compound 0.03 µM) 115% | viability, T/C (second compound 0.00949 µM, first compound 0.0949 µM) 94.4% | viability, T/C (second compound 0.00949 µM, first compound 0.3 µM) 99.9% | viability, T/C (second compound 0.00949 µM, first compound 0.949 µM) 66.8% | viability, T/C (second compound 0.00949 µM, first compound 3 µM) 12.5% | viability, T/C (second compound 0.03 µM, first compound 0.00949 µM) 86.4% | viability, T/C (second compound 0.03 µM, first compound 0.03 µM) 79.1% | viability, T/C (second compound 0.03 µM, first compound 0.0949 µM) 88.5% | viability, T/C (second compound 0.03 µM, first compound 0.3 µM) 77.3% | viability, T/C (second compound 0.03 µM, first compound 0.949 µM) 14% | viability, T/C (second compound 0.03 µM, first compound 3 µM) 11.1% | viability, T/C (second compound 0.0949 µM, first compound 0.00949 µM) 50.3% | viability, T/C (second compound 0.0949 µM, first compound 0.03 µM) 41.9% | viability, T/C (second compound 0.0949 µM, first compound 0.0949 µM) 43.7% | viability, T/C (second compound 0.0949 µM, first compound 0.3 µM) 29.9% | viability, T/C (second compound 0.0949 µM, first compound 0.949 µM) 9.42% | viability, T/C (second compound 0.3 µM, first compound 0.00949 µM) 26% | viability, T/C (second compound 0.3 µM, first compound 0.03 µM) 22.8% | viability, T/C (second compound 0.3 µM, first compound 0.0949 µM) 20.8% | viability, T/C (second compound 0.3 µM, first compound 0.3 µM) 18.5% | viability, T/C (second compound 0.3 µM, first compound 0.949 µM) 5.2% | viability, T/C (second compound 0.949 µM, first compound 0.00949 µM) 13.7% | viability, T/C (second compound 0.949 µM, first compound 0.03 µM) 13.6% | viability, T/C (second compound 0.949 µM, first compound 0.0949 µM) 12.8% | viability, T/C (second compound 3 µM, first compound 0.00949 µM) 11.4%
1380 nM: IC50 (second compound 0.00949 µM)

Cn1ncnc1[C@H]1c2n[nH]c(=O)c3cc(F)cc(c23)N[C@@H]1c1ccc(F)cc1 + CNC(C)C(=O)NC1CN(S(=O)(=O)c2cccc(S(=O)(=O)N3CCC4CCC(C(=O)NC(c5ccccc5)c5ccccc5)N4C(=O)C(NC(=O)C(C)NC)C3)c2)CCC2CCC(C(=O)NC(c3ccccc3)c3ccccc3)N2C1=O
inactive: viability, T/C (second compound 0.00316 µM, first compound 0.000316 µM) 13.7% | viability, T/C (second compound 0.00316 µM, first compound 0.001 µM) 11.2% | viability, T/C (second compound 0.00316 µM, first compound 0.00316 µM) 11.4% | viability, T/C (second compound 0.00316 µM, first compound 0.01 µM) 13.2% | viability, T/C [1] 12.5% | viability, T/C [2] 10.1% | viability, T/C (second compound 0.01 µM, first compound 0.000316 µM) 12.8% | viability, T/C (second compound 0.01 µM, first compound 0.001 µM) 12.4% | viability, T/C (second compound 0.01 µM, first compound 0.00316 µM) 14.8% | viability, T/C (second compound 0.01 µM, first compound 0.01 µM) 12.8% | viability, T/C [3] 12.4% | viability, T/C [4] 12.7% | viability, T/C (second compound 0.0316 µM, first compound 0.000316 µM) 10.1% | viability, T/C (second compound 0.0316 µM, first compound 0.001 µM) 10.7% | viability, T/C (second compound 0.0316 µM, first compound 0.00316 µM) 12.2% | viability, T/C (second compound 0.0316 µM, first compound 0.01 µM) 9.67% | viability, T/C [5] 9.98% | viability, T/C [6] 12.2% | viability, T/C (second compound 0.1 µM, first compound 0.000316 µM) 11.1% | viability, T/C (second compound 0.1 µM, first compound 0.001 µM) 14.1% | viability, T/C (second compound 0.1 µM, first compound 0.00316 µM) 11.7% | viability, T/C (second compound 0.1 µM, first compound 0.01 µM) 11.5% | viability, T/C [7] 10.3% | viability, T/C [8] 11.4% | viability, T/C (second compound 0.316 µM, first compound 0.000316 µM) 10.9% | viability, T/C (second compound 0.316 µM, first compound 0.001 µM) 10.8% | viability, T/C (second compound 0.316 µM, first compound 0.00316 µM) 13% | viability, T/C (second compound 0.316 µM, first compound 0.01 µM) 11.1% | viability, T/C [9] 11.9% | viability, T/C [10] 12.8% | viability, T/C (second compound 1 µM, first compound 0.000316 µM) 14.7% | viability, T/C (second compound 1 µM, first compound 0.001 µM) 13.5% | viability, T/C (second compound 1 µM, first compound 0.00316 µM) 12.3% | viability, T/C (second compound 1 µM, first compound 0.01 µM) 12.8% | viability, T/C [11] 9.82% | viability, T/C [12] 13.9%
< 0.316 nM: IC50 (second compound 0.00316 µM) | IC50 (second compound 0.01 µM) | IC50 (second compound 0.0316 µM) | IC50 (second compound 0.1 µM) | IC50 (second compound 0.316 µM) | IC50 (second compound 1 µM)

O=C(c1cc(Cc2n[nH]c(=O)c3ccccc23)ccc1F)N1CCN(C(=O)C2CC2)CC1 + CNC(C)C(=O)NC1CN(S(=O)(=O)c2cccc(S(=O)(=O)N3CCC4CCC(C(=O)NC(c5ccccc5)c5ccccc5)N4C(=O)C(NC(=O)C(C)NC)C3)c2)CCC2CCC(C(=O)NC(c3ccccc3)c3ccccc3)N2C1=O
inactive: viability, T/C [1] 10.6% | viability, T/C [2] 15.2% | viability, T/C (second compound 0.00316 µM, first compound 0.316 µM) 8.86% | viability, T/C (second compound 0.00316 µM, first compound 1 µM) 10.7% | viability, T/C (second compound 0.00316 µM, first compound 3.16 µM) 10.2% | viability, T/C (second compound 0.00316 µM, first compound 10 µM) 11.4% | viability, T/C [3] 16.2% | viability, T/C [4] 14.4% | viability, T/C (second compound 0.01 µM, first compound 0.316 µM) 14.5% | viability, T/C (second compound 0.01 µM, first compound 1 µM) 15.3% | viability, T/C (second compound 0.01 µM, first compound 3.16 µM) 16.9% | viability, T/C (second compound 0.01 µM, first compound 10 µM) 14% | viability, T/C [5] 13.8% | viability, T/C [6] 12% | viability, T/C (second compound 0.0316 µM, first compound 0.316 µM) 11.5% | viability, T/C (second compound 0.0316 µM, first compound 1 µM) 13.1% | viability, T/C (second compound 0.0316 µM, first compound 3.16 µM) 11.4% | viability, T/C (second compound 0.0316 µM, first compound 10 µM) 12.3% | viability, T/C [7] 13% | viability, T/C [8] 13.8% | viability, T/C (second compound 0.1 µM, first compound 0.316 µM) 11.8% | viability, T/C (second compound 0.1 µM, first compound 1 µM) 13.8% | viability, T/C (second compound 0.1 µM, first compound 3.16 µM) 12.1% | viability, T/C (second compound 0.1 µM, first compound 10 µM) 11.4% | viability, T/C [9] 14.7% | viability, T/C [10] 12.3% | viability, T/C (second compound 0.316 µM, first compound 0.316 µM) 11.8% | viability, T/C (second compound 0.316 µM, first compound 1 µM) 12.3% | viability, T/C (second compound 0.316 µM, first compound 3.16 µM) 11.3% | viability, T/C (second compound 0.316 µM, first compound 10 µM) 13.5% | viability, T/C [11] 11.1% | viability, T/C [12] 10.9% | viability, T/C (second compound 1 µM, first compound 0.316 µM) 13.7% | viability, T/C (second compound 1 µM, first compound 1 µM) 10.9% | viability, T/C (second compound 1 µM, first compound 3.16 µM) 11.9% | viability, T/C (second compound 1 µM, first compound 10 µM) 14.3%
< 31.6 nM: IC50 (second compound 0.00316 µM) | IC50 (second compound 0.01 µM) | IC50 (second compound 0.0316 µM) | IC50 (second compound 0.1 µM) | IC50 (second compound 0.316 µM) | IC50 (second compound 1 µM)
